Laboratory results as given in US12582599B2, “Methods for treatment of bladder cancer with gemcitabine” (TARIS Biomedical LLC, priority 2014, dated 2026).

Legend:
[1] = 14C gemcitabine bladder perfusion vs IV bolus, blood/urine/tissue content; assay type: in vivo, male Sprague Dawley rats
Experimental: A study was conducted on male Sprague Dawley rats administering ^14C gemcitabine by intra-urinary bladder cannula, over a 6- or 24-hour continuous perfusion, or by a single IV bolus. The 6- and 24-hour continuous perfusions perfused 6.9 and 26.6 mg, respectively, of gemcitabine into the bladder. The single IV bolus included 5.0 mg of gemcitabine. Blood (FIG. 8), urine, and tissue samples (e.g., bladder, prostate) (FIGS. 7 and 9) were collected and analyzed for gemcitabine content. The results are illustrated in FIGS. 7-9. […] The gemcitabine levels observed for each of the bladder epithelium, lamina propria, muscularis, and adventitia are shown in FIG. 14, which also illustrates a target effective range for the gemcitabine tissue concentration.

[2] = Gemcitabine release systems vs intravesical instillation in hounds; assay type: in vivo, large mixed breed hounds; settings: intravesical instillation mimicking standard clinical doses
Experimental: Two gemcitabine release systems (devices as shown in FIGS. 1A-1B) designed to release therapeutic levels (4 mg/day and 40 mg/day) into the urine were screened. The devices used either laser-drilled orifices or punched orifices for release of the gemcitabine. The systems tested were compared to intravesical instillations which were designed to mimic the standard intravesical doses used clinically. The test animals were large mixed breed hounds, with N=3 for each group.
In vivo, one system yielded very low urine and tissue concentrations but was well tolerated by the test animal. The other system produced target urine concentration levels but was poorly tolerated by the test animal. Urine profiles were also variable and the duration of drug release was unacceptably short.

[3] = minipig, in vivo
Experimental: Varying concentrations of gemcitabine were perfused into pigs for 7 days, N=5 (2 males and 3 females per treatment group). The perfusion animals were dosed at concentrations selected to bracket the target doses for bladder cancer in humans. For comparison, a gemcitabine releasing device (as shown in FIGS. 1A-1B) with large bore end caps (restraining plugs with a large aperture therethrough for drug release) with an intermediate in vitro release rate was deployed in a separate group of animals.

Compound: Nc1ccn([C@@H]2O[C@H](CO)[C@@H](O)C2(F)F)c(=O)n1 [gemcitabine, 2′,2′-difluorodeoxycytidine]
- gemcitabine levels in bladder tissue ([1]; 6- or 24-hour continuous bladder perfusion, sustained urine concentrations): at or exceed therapeutic concentrations
- concentration of gemcitabine in the bladder ([1]; 24 hours after a clinically relevant IV dose, compared with perfusion): significantly lower concentration
- plasma/systemic exposure ([1]; continuous delivery by intravesical administration): without significant plasma/systemic exposure
- urothelial lesions [2]: significant urothelial lesions
- tolerability [3]: tolerated gemcitabine well
